According to patent US8415289B2, “Bacterial-derived BLIS for treatment of acne” (The Trustees of the University of Pennsylvania, priority 2005, dated 2013):

Test system: S. salivarius
Experiment: Etest MIC susceptibility of clinical S. salivarius isolates to antibiotics
Type: cell-based, Streptococcus salivarius
Method: The dorsum of the tongue was swabbed and the specimen collected using a BBL CultureSwab Collection and Transport System (Difco, Detroit, Mich.). The sterile cotton stick was drawn across the dorsum of the tongue 10-12 times while maintaining pressure. Swabs were stored at 4° C. for no more than 24 h. Cultures were diluted 10 and 100-fold using Tryptic Soy Broth (Difco, Detroit, Mich.), and diluted cultures directly inoculated on mitis-salivarius agar (Difco, Detroit, Mich.) using sterile technique. Plates were incubated upside down at 37° C. in 5% carbon dioxide for 24 h. Colonies were screened by morphology consistent with S. salivarius (large, soft, fluffy colonies due to levan production from the sucrose in the agar). This is the standard method used to screen for S. salivarius (24;24). All samples identified based on visual morphology were frozen and stored for subsequent testing (BLIS assays and resistance testing).
Colonies identified as S. salivarius by morphology were tested for susceptibility to clindamycin, erythromycin and tetracycline using the Etest MIC method. Etest strips were purchased from AB Biodisk (Piscataway, N.J., USA), and were used in accordance with the manufacturer's instructions. The concentration gradient of each antimicrobial agent on the Etest strips was 0.016-256 ug/ml. MICs were read directly from the test strip where the zone of inhibition intersected the MIC scale on the strip. Zones of inhibition were compared with standard values (NCCLS M100-S10) to assign a designation of “susceptible,” “intermediate”, or “resistant” to each antimicrobial agent.
Secondarily, determination was made as to whether the S. salivarius recovered was resistant to clindamycin, erythromycin, and tetracycline. Chi-squared analyses were performed to detect a difference among Groups Ia, Ib, and II. We further stratified the acne patients into those receiving oral and/or topical antibiotics, and no antibiotics. These findings were represented as simple percentages, allowing for qualitative comparisons among these groups. […] This accounts for the discrepancy between the numerators in Table 2 and the denominators in Table 3.

[1] = Group II: no acne, no antibiotics, 15 isolates, NCCLS M100-S10
[2] = Group Ia: acne, using antibiotics, 13 isolates, NCCLS M100-S10
[3] = Group Ib: acne, not using antibiotics, 5 isolates, NCCLS M100-S10

SMILES: CC[C@H]1OC(=O)[C@H](C)[C@@H](O[C@H]2C[C@@](C)(OC)[C@@H](O)[C@H](C)O2)[C@H](C)[C@@H](O[C@@H]2O[C@H](C)C[C@H](N(C)C)[C@H]2O)[C@](C)(O)C[C@@H](C)C(=O)[C@H](C)[C@@H](O)[C@]1(C)O [Erythromycin, erythromycin]
- Proportion of antibiotic-resistant Streptococcus salivarius in the oropharynx [1]: 3/15 (20%)
- Proportion of antibiotic-resistant Streptococcus salivarius in the oropharynx (Group II: no acne, no antibiotics, 15 isolates, NCCLS M100-S10, listed as erythromycin): 20%
- Proportion of antibiotic-resistant Streptococcus salivarius in the oropharynx [2]: 9/13 (69%)
- Proportion of antibiotic-resistant Streptococcus salivarius in the oropharynx (Group Ia: acne, using antibiotics, 13 isolates, NCCLS M100-S10, listed as erythromycin): 69%
- Proportion of antibiotic-resistant Streptococcus salivarius in the oropharynx [3]: 2/5 (40%)
- Proportion of antibiotic-resistant Streptococcus salivarius in the oropharynx (Group Ib: acne, not using antibiotics, 5 isolates, NCCLS M100-S10, listed as erythromycin): 40%

SMILES: CCC[C@@H]1C[C@@H](C(=O)N[C@@H]([C@H]2O[C@H](SC)[C@H](O)[C@@H](O)[C@H]2O)[C@H](C)Cl)N(C)C1 [Clindamycin, clindamycin]
- Proportion of antibiotic-resistant Streptococcus salivarius in the oropharynx [1]: 1/15 (7%)
- Proportion of antibiotic-resistant Streptococcus salivarius in the oropharynx (Group II: no acne, no antibiotics, 15 isolates, NCCLS M100-S10, listed as clindamycin): 7%
- Proportion of antibiotic-resistant Streptococcus salivarius in the oropharynx [2]: 9/13 (69%)
- Proportion of antibiotic-resistant Streptococcus salivarius in the oropharynx (Group Ia: acne, using antibiotics, 13 isolates, NCCLS M100-S10, listed as clindamycin): 69%
- Proportion of antibiotic-resistant Streptococcus salivarius in the oropharynx [3]: 1/5 (20%)
- Proportion of antibiotic-resistant Streptococcus salivarius in the oropharynx (Group Ib: acne, not using antibiotics, 5 isolates, NCCLS M100-S10, listed as clindamycin): 20%

SMILES: CN(C)[C@@H]1C(O)=C(C(N)=O)C(=O)[C@@]2(O)C(O)=C3C(=O)c4c(O)cccc4[C@@](C)(O)[C@H]3C[C@@H]12 [Tetracycline, tetracycline]
- Proportion of antibiotic-resistant Streptococcus salivarius in the oropharynx [1]: 4/15 (27%)
- Proportion of antibiotic-resistant Streptococcus salivarius in the oropharynx (Group II: no acne, no antibiotics, 15 isolates, NCCLS M100-S10, listed as tetracycline): 27%
- Proportion of antibiotic-resistant Streptococcus salivarius in the oropharynx [2]: 10/13 (77%)
- Proportion of antibiotic-resistant Streptococcus salivarius in the oropharynx (Group Ia: acne, using antibiotics, 13 isolates, NCCLS M100-S10, listed as tetracycline): 77%
- Proportion of antibiotic-resistant Streptococcus salivarius in the oropharynx [3]: 2/5 (40%)
- Proportion of antibiotic-resistant Streptococcus salivarius in the oropharynx (Group Ib: acne, not using antibiotics, 5 isolates, NCCLS M100-S10, listed as tetracycline): 40%
